Results as given in patent US20030068663A1, “Method and kit for measuring skin inflammation or irritation” (priority 2001, published 2003).
Where “and” joins values, the source holds several entries; their conditions need not be identical. Equal values may be shown once.

Experiments:
[1] = tested on: IL-1α expressed on the skin; assay: IL-1α on skin surface after Hill Top chamber exposure to SLS solutions, Sebutape collection, ELISA; format: in vivo, human
Procedure: Endogen, Inc. Interleukin-1α ELISA
(§1) 1. Baseline (corresponding to an untreated control) levels of PGE2 contained in secretions present on the skin surface were measured along the lower volar forearms of test panelists by placing a mild adhesive-coated microporous plastic film, Sebutape® (Cuderm Corporation, Dallas, Tex.), on the skin with the adhesive side down, making direct contact with the skin. The Sebutape® was removed from the skin after 1 minute and then placed in a vial containing 500 μL saline. This Sebutape® collection process was repeated three more times with a 1-minute contact time for each Sebutape®. The collected samples were stored at −70 ° C. until analysis (described below).
(§2) 2. Hill Top chambers® (Hill Top Research, Cincinnati, Ohio) containing 400 μL of the test fluid (deionized or tap water) were applied to the lower volar forearms of the test panelists. After 4 hours of exposure, the Hill Top chambers® were removed and the test sites were rinsed with tap water and patted dry.
(§3) 3. Twenty four hours after the Hill Top chambers® were removed and the arm was rinsed and patted dry, skin secretions containing PGE2 expressed on the skin surface were collected using the Sebutape absorption method described previously in Step #1 above.
The level of irritation caused by dilute solutions of SLS as a function of SLS concentration was assessed using the method described in Example 1, with the exception that the level of Interleukin-1α(IL-1α) was used to assess the degree of irritation, rather than PGE2. The levels of IL-1α were measured via immunoassay (Human IL-1αKit #EH2-IL1a, Endogen, Inc., Woburn. Mass.). As with PGE2, the measured levels of IL-1α(in pg/mL) were normalized against the total amount of protein (in μg/mL) extracted from each Sebutape® strip. To account for person-to-person variability, IL-1α levels for each treatment site were further normalized using the baseline levels of IL-1α measured for the untreated control.

[2] = tested on: PGE2 expressed on the skin surface; assay: PGE2 on skin surface 24 h after 4 h Hill Top chamber exposure, Sebutape collection, immunoassay; format: in vivo, human; conditions: for Normalized levels of PGE2, Average: average of 10 panelists; for Normalized levels of PGE2: individual panelists 1-10
Procedure: Assay Designs, Inc. PGE2 Enzyme Immunoassay:
as §1, §2, §3
The collected Sebutape® samples were analyzed using the following methods. After thawing, the samples were sonicated for 15 minutes and vortexed vigorously. The solutions, containing extracted proteins and eicosanoids, were analyzed for levels of PGE2 via immunoassay (Assay Designs High Sensitivity PGE2 Enzyme Immunoassay #93001) and levels of total protein using the bicinchoninic acid (BCA) protein assay (Kit #23225, Pierce Chemical Company, Rockford, Ill.).
Four Sebutape® samples were taken from each test site. The measured levels of PGE2 (in pg/mL) were normalized against the total amount of protein (in μg/mL) extracted from each Sebutape® strip. The four normalized values were then averaged to determine the levels of PGE2 (in pg/μg) expressed for each test site. To account for person-to-person variability, PGE2 levels, for each panelist were further normalized relative to the levels of PGE2 measured for the untreated control.
The method of Example 1 was extended to measure the level of inflammation or irritation elicited by a dilute solution (8% w/w in deionized water) of a mild facial cleanser (Neutrogena Fresh Foaming Cleanser, Neutrogena Corporation, Los Angeles, California) compared to that of deionized water.

Row | Structure (SMILES) | Levels of IL-1α ([1]; 5 w/w % SLS in deionized water) [dimensionless units] | Levels of IL-1α ([1]; 10 w/w % SLS in deionized water) [dimensionless units] | Levels of IL-1α ([1]; 20 w/w % SLS in deionized water) [dimensionless units] | Normalized levels of PGE2, Average ([2]; Example 3, cleanser as 8% w/w in deionized water) [dimensionless units] | Normalized levels of PGE2 ([2]; Example 3, cleanser as 8% w/w in deionized water, 4 h chamber) | Normalized levels of PGE2, Average ([2]; 4 h chamber on volar forearm, collected 24 h later) [dimensionless units] | Normalized levels of PGE2 ([2]; 400 μL fluid, 4 h chamber on volar forearm, collected 24 h later, normalized to protein and untreated control)
1 | CCCCCCCCCCCCOS(=O)(=O)[O-].[Na+] [SLS, sodium lauryl sulfate] | 2.83 | 2.71 | 1.00 | – | – | – | –
2 | O [Deionized Water] | – | – | – | 1.53 | 1.49 dimensionless units and 2.12 dimensionless units and 1.25 dimensionless units and 1.60 dimensionless units and 1.77 dimensionless units and 1.45 dimensionless units and 1.98 dimensionless units and 1.48 dimensionless units and 1.30 dimensionless units and 0.83 dimensionless units | 0.86 | 0.92 dimensionless units and 0.84 dimensionless units and 0.93 dimensionless units and 1.71 dimensionless units and 1.01 dimensionless units and 0.94 dimensionless units and 0.40 dimensionless units and 0.56 dimensionless units and 0.62 dimensionless units and 0.69 dimensionless units
